In patent US10577332B2, “Tetrazole derivatives” (Hoffmann-La Roche Inc., priority 2015, dated 2020):

Legend:
human EAAT3 = biological target: T1, human EAAT3 (Homo sapiens, UniProt P43005); assay: FLIPR Membrane Potential (FMP) assay; format: cell-based; settings: HEK-293 cells stably expressing human EAAT3; antagonist applied 15 min before L-glutamate at EC80; Kb by Cheng-Prusoff from IC50
T1 construct: expressed in transfected cells
T1 sequence (P43005 1-524): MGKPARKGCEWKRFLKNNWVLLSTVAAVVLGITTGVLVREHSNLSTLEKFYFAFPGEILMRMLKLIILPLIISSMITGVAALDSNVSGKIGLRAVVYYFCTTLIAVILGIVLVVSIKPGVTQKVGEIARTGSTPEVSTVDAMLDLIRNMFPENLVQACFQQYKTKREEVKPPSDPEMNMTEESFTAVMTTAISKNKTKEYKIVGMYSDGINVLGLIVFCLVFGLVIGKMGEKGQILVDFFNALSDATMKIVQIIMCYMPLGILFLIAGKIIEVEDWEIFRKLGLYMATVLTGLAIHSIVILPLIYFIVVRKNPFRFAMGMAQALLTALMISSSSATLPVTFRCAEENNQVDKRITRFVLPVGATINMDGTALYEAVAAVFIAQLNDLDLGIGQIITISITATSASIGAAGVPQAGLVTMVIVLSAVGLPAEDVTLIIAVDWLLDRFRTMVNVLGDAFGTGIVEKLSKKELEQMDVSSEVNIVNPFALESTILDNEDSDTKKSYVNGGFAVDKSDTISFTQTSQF
Protocol: The FLIPR Membrane Potential (FMP) Assay
HEK-293 cells stably expressing human EAAT3 were seeded at 55 000 cells/well in growth medium (DMEM glutamate free (Invitrogen 11960-044), 1% Pen Strep (10 ml/l GIBCO BRL No 15140-023), 10% FCS non dialysed heat inactivated, 5 mg/l puromycin) in poly-D-lysine treated 96-well black microtiter plates with clear-bottom. After 24 h, the growth medium was removed and 100 μl/well of Krebs buffer (140 mM NaCl, 4.7 mM KCl, 2.5 mM CaCl2, 1.2 mM MgCl2, 11 mM HEPES, 10 mM D-glucose, pH=7.4) added. The cells were then loaded by adding 100 μl/well FMP assay dye (FLIPR Membrane Potential assay reagent, Molecular Devices). The 96-well plates were then incubated at 37° C. for 1 h. The depolarization of the cells will cause more dye to enter in the cells, where it will bind to intracellular proteins and lipids and cause an increase in the fluorescence signal. Antagonist potency at human EAAT3 was determined by using L-glutamate as agonist at a concentration which gives 80% of the maximum response. The antagonists were applied 15 min before the application of the agonist L-glutamate. The assays were performed at room temperature and measurements done by using a Fluorometric Imaging Plate Reader (FLIPR, Molecular Devices) and filter #2. Responses were measured as peak increase in fluorescence minus basal (i.e. fluorescence without addition of L-glutamate). Kb was determined using the Cheng-Prusoff equation Kb=IC50/[1+(A/EC50)], where IC50 is the concentration of the antagonist producing 50% inhibition, A is the concentration of the agonist against which the IC50 is being determined (at EC80) and EC50 is the concentration of the agonist producing 50% […].

Molecule	melting point [°C]	Kb (human EAAT3) [nM]
CC1(NC(=O)c2cc(-c3ccc(F)cc3)cc(-n3cnnn3)c2)CCS(=O)(=O)C1 (racemic) [Example 4, (RS)-3-(4-Fluorophenyl)-N-(3-methyl-1,1-dioxothiolan-3-yl)-5-(tetrazol-1-yl)-benzamide]	146.5	460
CC1(NC(=O)c2cc(-c3ccc(Cl)cc3)cc(-n3cnnn3)c2)CCS(=O)(=O)C1 (racemic) [Example 16, (RS)-3-(4-Chlorophenyl)-N-(3-methyl-1,1-dioxothiolan-3-yl)-5-(tetrazol-1-yl)-benzamide]	204	630
Cc1ccc(-c2cc(C(=O)NC3(C)CCS(=O)(=O)C3)cc(-n3nnnc3C(C)C)c2)cc1 (racemic) [Example 17, (RS)-N-(3-methyl-1,1-dioxothiolan-3-yl)-3-(4-methylphenyl)-5-(5-propan-2-yltetrazol-1-yl)-benzamide]	112	250
Cc1ccc(-c2cc(C(=O)NC3(C)CCS(=O)(=O)C3)cc(-n3nnnc3C)c2)cc1 (racemic) [Example 24, (RS)-N-(3-Methyl-1,1-dioxothiolan-3-yl)-3-(4-methylphenyl)-5-(5-methyltetrazol-1-yl)-benzamide]	69	380
Cc1ccc(-c2cc(C(=O)NC3(C)CCS(=O)(=O)C3)cc(-n3nnnc3C3CC3)c2)cc1 (racemic) [Example 33, (RS)-3-(5-Cyclopropyltetrazol-1-yl)-N-(3-methyl-1,1-dioxothiolan-3-yl)-5-(4-methylphenyl)-benzamide]	130.5	300
CCc1nnnn1-c1cc(C(=O)NC2(C)CCS(=O)(=O)C2)cc(-c2ccc(C)cc2)c1 (racemic) [Example 34, (RS)-3-(5-Ethyltetrazol-1-yl)-N-(3-methyl-1,1-dioxothiolan-3-yl)-5-(4-methylphenyl)-benzamide]	122	270
CC(C)c1nnnn1-c1cc(C(=O)NC2(C)CCS(=O)(=O)C2)cc(-c2ccc(Cl)cc2)c1 (racemic) [Example 45, (RS)-3-(4-Chlorophenyl)-N-(3-methyl-1,1-dioxothiolan-3-yl)-5-(5-propan-2-yltetrazol-1-yl)benzamide]	73	260
CC(C)c1nnnn1-c1cc(C(=O)NC2(C)CCS(=O)(=O)C2)cc(-c2ccc(C(F)(F)F)cc2)c1 (racemic) [Example 49, (RS)—N-(3-methyl-1,1-dioxothiolan-3-yl)-3-(5-propan-2-yltetrazol-1-yl)-5-[4-(trifluoromethyl)phenyl]benzamide]	117	330
CC1(NC(=O)c2cc(-c3ccc(Cl)cc3)cc(-n3nnnc3C3CC3)c2)CCS(=O)(=O)C1 (racemic) [Example 57, (RS)-3-(4-Chlorophenyl)-5-(5-cyclopropyltetrazol-1-yl)-N-(3-methyl-1,1-dioxothiolan-3-yl)-benzamide]	126	350
CC(C)c1nnnn1-c1cc(C(=O)NC2(C)CCS(=O)(=O)C2)cc(-c2ccc(F)cc2)c1 (racemic) [Example 63, (RS)-3-(4-Fluorophenyl)-N-(3-methyl-1,1-dioxothiolan-3-yl)-5-(5-propan-2-yltetrazol-1-yl)-benzamide]	112.5	650
Cc1nnnn1-c1cc(C(=O)NC2(C)CCS(=O)(=O)C2)cc(-c2ccc(Cl)cc2)c1 (racemic) [Example 65, (RS)-3-(4-Chlorophenyl)-N-(3-methyl-1,1-dioxothiolan-3-yl)-5-(5-methyltetrazol-1-yl)-benzamide]	155.5	360
CC1(NC(=O)c2cc(-c3ccc(F)cc3)cc(-n3nnnc3C3CC3)c2)CCS(=O)(=O)C1 (racemic) [Example 77, (RS)-3-(5-Cyclopropyltetrazol-1-yl)-5-(4-fluorophenyl)-N-(3-methyl-1,1-dioxothiolan-3-yl)-benzamide]	120	250
Cc1nnnn1-c1cc(C(=O)NC2(C)CCS(=O)(=O)C2)cc(-c2ccc(F)cc2)c1 (racemic) [Example 87, (RS)-3-(4-Fluorophenyl)-N-(3-methyl-1,1-dioxothiolan-3-yl)-5-(5-methyltetrazol-1-yl)-benzamide]	117	290
CC1(NC(=O)c2cc(-c3ccc(Cl)cc3)cc(-n3nnnc3C(C)(C)C)c2)CCS(=O)(=O)C1 (racemic) [Example 89, (RS)-3-(5-tert-Butyltetrazol-1-yl)-5-(4-chlorophenyl)-N-(3-methyl-, 1-dioxothiolan-3-yl)benzamide]	187	250
CC1(NC(=O)c2cc(-c3ccc(F)cc3)cc(-n3nnnc3C(C)(C)C)c2)CCS(=O)(=O)C1 (racemic) [Example 95, (RS)-3-(5-tert-Butyltetrazol-1-yl)-5-(4-fluorophenyl)-N-(3-methyl-, 1-dioxothiolan-3-yl)-benzamide]	258.5	350
CCC(C)(C)NC(=O)c1cc(-c2ccc(F)cc2)cc(-n2cnnn2)c1 [Example 1, 3-(4-Fluorophenyl)-N-(2-methylbutan-2-yl)-5-(tetrazol-1-yl)-benzamide]	200	145
CCC(C)(C)NC(=O)c1cc(-c2ccc(C(F)(F)F)cc2)cc(-n2cnnn2)c1 [Example 2, N-(2-Methylbutan-2-yl)-3-(tetrazol-1-yl)-5-[4-(trifluoromethyl)phenyl]-benzamide]	168	220
CC(C)(C)NC(=O)c1cc(-c2ccc(C(F)(F)F)cc2)cc(-n2cnnn2)c1 [Example 3, N-tert-Butyl-3-(tetrazol-1-yl)-5-[4-(trifluoromethyl)phenyl]-benzamide]	108	470
CCC(C)(C)NC(=O)c1cc(-c2ccc(C)c(F)c2)cc(-n2cnnn2)c1 [Example 5, 3-(3-Fluoro-4-methylphenyl)-N-(2-methylbutan-2-yl)-5-(tetrazol-1-yl)-benzamide]	161	250
CCC(C)(C)NC(=O)c1cc(-c2ccc(F)c(C)c2)cc(-n2cnnn2)c1 [Example 6, 3-(4-Fluoro-3-methylphenyl)-N-(2-methylbutan-2-yl)-5-(tetrazol-1-yl)-benzamide]	120	410
CCC(C)(C)NC(=O)c1cc(-c2ccc(C(C)C)cc2)cc(-n2cnnn2)c1 [Example 8, N-(2-Methylbutan-2-yl)-3-(4-propan-2-ylphenyl)-5-(tetrazol-1-yl)-benzamide]	–	610
CCC(C)(C)NC(=O)c1cc(-c2ccc(C3CC3)cc2)cc(-n2cnnn2)c1 [Example 9, 3-(4-Cyclopropylphenyl)-N-(2-methylbutan-2-yl)-5-(tetrazol-1-yl)-benzamide]	–	540
Cc1ccc(-c2cc(C(=O)NC(C)(C)CO)cc(-n3nnnc3C3CC3)c2)cc1 [Example 32, 3-(5-Cyclopropyltetrazol-1-yl)-N-(1-hydroxy-2-methylpropan-2-yl)-5-(4-methylphenyl)-benzamide]	–	430
CCC(C)(C)NC(=O)c1cc(-c2ccc(Cl)c(F)c2)cc(-n2cnnn2)c1 [Example 37, 3-(4-Chloro-3-fluorophenyl)-N-(2-methylbutan-2-yl)-5-(tetrazol-1-yl)-benzamide]	–	240
CC(C)c1nnnn1-c1cc(C(=O)NC(C)(C)CO)cc(-c2ccc(Cl)cc2)c1 [Example 50, 3-(4-Chlorophenyl)-N-(1-hydroxy-2-methylpropan-2-yl)-5-(5-propan-2-yltetrazol-1-yl)-benzamide]	–	260
CC(C)c1nnnn1-c1cc(C(=O)NC(C)(C)CO)cc(-c2ccc(C(F)(F)F)cc2)c1 [Example 51, N-(1-Hydroxy-2-methylpropan-2-yl)-3-(5-propan-2-yltetrazol-1-yl)-5-[4-(trifluoromethyl)-phenyl]-benzamide]	–	370
N-(2-methylbutan-2-yl)-3-(4-methylphenyl)-5-(5-methyltetrazol-1-yl)-benzamide [Example 22]	–	150
